The text below walks through data of patent US20150253306A1 (priority 2012, published 2015).

For the assay, the system named is intact platelets. Put plainly: mitochondrial respiration of intact platelets (titration protocol). It is filed as cell-based, human. Here is the method: Data was recorded with DatLab software 4.3.
Integrated respiration of intact cells with endogenous mitochondrial substrates was evaluated with two different titration protocols. Platelets were suspended in either PBS-glucose or the control subject's own plasma. […] To evaluate the contribution of respiration independent of ADP phosphorylation, oligomycin (1 μg/ml, ATP-synthase inhibitor) was sequentially added inducing LEAK respiration state (also known as oligomycin-induced state 4 respiration). […] Rotenone (2 μM, complex I [CI] inhibitor) and antimycin-A (1 μg/ml, complex III [CIII] inhibitor) were then sequentially added to inhibit the ETS providing the residual oxygen consumption which was subtracted from the different respiratory parameters in further analyses.
In order to evaluate the influence on maximal respiratory capacity by the inhibition of ATP-synthase, a second experimental protocol was performed, where ETS capacity was evaluated by direct titration of FCCP after stabilization of routine respiration, followed by the same inhibitors as above. Control ratios were derived from maximal, FCCP-stimulated, respiration divided by LEAK respiration (ETS/LEAK) and routine respiration (ETS/routine).

For the compound `C=C(C)[C@H]1Cc2c(ccc3c2O[C@@H]2COc4cc(OC)c(OC)cc4[C@@H]2C3=O)O1` [rotenone], under “Homo sapiens, Platelet, read-out: inhibition of respiration”, the inhibition at 2 µM is around 99%.

antimycin-A: where the note is “intact platelets, antimycin-A 1 μg/ml added after rotenone 2 μM”, the “further inhibition of respiration after rotenone” value was “no further inhibition”.
